The subject of the test is BT-474 cancer cells. Briefly: Inhibition of BT-474 cell proliferation (CellTiter-Glo). In kind it is cell-based. The settings on record: Homo sapiens, BT-474 cells, 120 hours. How it is done:
BT-474 cancer cells were cultured by using RPMI-1640 medium containing 20% FBS. The BT-474 cancer cells were seeded to a white clear bottom 96 well plate (Corning) at 5,000 cells per well 48 hours before the BT-474 cancer cells were treated with Example Compounds. Example Compounds were diluted in dimethylsulfoxide (3-fold diluted, total 11 concentrations) and 1 μL each was injected so that the final concentration was 0.2 nM to 10 μM. For the measurement of living cells, the cells were stored at room temperature for 10 minutes using the CellTiter-Glo cell viability reagent (Promega) after a predetermined time (120 hours) after the treatment of Example Compounds, and then the luminescence intensity was measured using a reader (SynergyNeo, Biotek). Each test was repeated three times.
The result value was calculated as a cell growth rate (%) compared to a control group. Graphs were plotted and GI50 values were calculated using the GraphPad Prism version 8.0 program, and the results are shown in Table 18 below.
Background: ATP-based viability assays read luminescence as a measure of living cells.
One may read the GI50 as the concentration at which growth is held to half of that of the control. On to `C=CC(=O)N1CCC(Nc2cc3c(Nc4cc(C)c(Oc5ccn6ncnc6c5)cc4OC4CN(C)C4)ncnc3cc2OC)CC1` [Example 4, 1-(4-((4-((4-([1,2,4]triazolo[1,5-a]pyridin-7-yloxy)-5-methyl-2-((1-methylazetidin-3-yl)oxy)phenyl)amino)-7-methoxyquinazolin-6-yl)amino)piperidin-1-yl)prop-2-en-1-one], for which the GI50 lay within 100 to 500 nM.

In the case of `C=CC(=O)N1CCC(Oc2cc3c(Nc4ccc(Oc5ccn(-c6cnc(OC)nc6)n5)cc4OC)ncnc3cc2OC)CC1` [Example 10, 1-(4-((7-methoxy-4-((2-methoxy-4-((1-(2-methoxypyrimidin-5-yl)-1H-pyrazol-3-yl)oxy)phenyl)amino)quinazolin-6-yl)oxy)piperidin-1-yl)prop-2-en-1-one], the GI50 was in the range of 100 to 500 nM.

For the molecule `C=CC(=O)N1CCC(Oc2cc3c(Nc4cc(Cl)c(Oc5cccc(OC)c5)cc4OC)ncnc3cc2OC)CC1` [Example 11, 1-(4-((4-((5-chloro-2-methoxy-4-(3-methoxyphenoxy)phenyl)amino)-7-methoxyquinazolin-6-yl)oxy)piperidin-1-yl)prop-2-en-1-one], the GI50 is no more than 50 nM.

`COc1cc(Oc2ccn3ncnc3c2)c(C)cc1Nc1ncnc2cc(OC)c(OC3CCN(C(=O)C(F)Cl)CC3)cc12` (stereo not drawn) [Example 14, 1-(4-((4-((4-([1,2,4]triazolo[1,5-a]pyridin-7-yloxy)-2-methoxy-5-methylphenyl)amino)-7-methoxyquinazolin-6-yl)oxy)piperidin-1-yl)-2-chloro-2-fluoroethan-1-one]: the GI50 is no more than 50 nM.

Regarding `C=CC(=O)N1CC2CC1CC2Oc1cc2c(Nc3cc(C)c(Oc4ccn5ncnc5c4)cc3OC)ncnc2cc1OC` (stereo not drawn) [Example 18, 1-(5-((4-((4-([1,2,4]triazolo[1,5-a]pyridin-7-yloxy)-2-methoxy-5-methylphenyl)amino)-7-methoxyquinazolin-6-yl)oxy)-2-azabicyclo[2.2.1]heptan-2-yl)prop-2-en-1-one], the GI50 was no more than 50 nM.

Regarding `C=CC(=O)N1CC(Oc2cc3c(Nc4cc(C)c(Oc5ccn6ncnc6c5)cc4OC)ncnc3cc2OC)C1` [Example 19, 1-(3-((4-((4-([1,2,4]triazolo[1,5-a]pyridin-7-yloxy)-2-methoxy-5-methylphenyl)amino)-7-methoxyquinazolin-6-yl)oxy)azetidin-1-yl)prop-2-en-1-one], the GI50 is no more than 50 nM.

Regarding `C=CC(=O)N1CCOc2cc3ncnc(Nc4cc(C)c(Oc5ccn6ncnc6c5)cc4OC)c3cc21` [Example 21, 1-(4-((4-([1,2,4]triazolo[1,5-a]pyridin-7-yloxy)-2-methoxy-5-methylphenyl)amino)-7,8-dihydro-6H-[1,4]oxazino[3,2-g]quinazolin-6-yl)prop-2-en-1-one], the GI50 was in the range of 100 to 500 nM.

Take `C=CC(=O)Nc1cc2c(Nc3cc(C)c(Oc4ccn5ncnc5c4)cc3OC)ncnc2cc1N1CCC(N2CCOCC2)CC1` [Example 22, N-(4-((4-([1,2,4]triazolo[1,5-a]pyridin-7-yloxy)-2-methoxy-5-methylphenyl)amino)-7-(4-morpholinopiperidin-1-yl)quinazolin-6-yl)acrylamide]: the GI50 lay within 50 to 100 nM.

In the case of `C=CC(=O)Nc1cc2c(Nc3cc(C)c(Oc4ccn5ncnc5c4)cc3OC)ncnc2cc1N1CCOCC1` [Example 23, N-(4-((4-([1,2,4]triazolo[1,5-a]pyridin-7-yloxy)-2-methoxy-5-methylphenyl)amino)-7-morpholinoquinazolin-6-yl)acrylamide], the GI50 is greater than 500 nM.

As for `COc1cc(Oc2ccn3ncnc3c2)c(C)cc1Nc1ncnc2ccc(NC(=O)/C=C/CN(C)C)c(Cl)c12` [Example 26, (E)-N-(4-((4-([1,2,4]triazolo[1,5-a]pyridin-7-yloxy)-2-methoxy-5-methylphenyl)amino)-5-chloroquinazolin-6-yl)-4-(dimethylamino)but-2-enamide], the concentration for 50% growth inhibition (GI50) is no more than 50 nM.

In the case of `C=CC(=O)N1CCN(c2ncc3ncnc(Nc4cc(C)c(Oc5ccn6ncnc6c5)cc4OC)c3n2)CC1` [Example 27, 1-(4-(8-((4-([1,2,4]triazolo[1,5-a]pyridin-7-yloxy)-2-methoxy-5-methylphenyl)amino)pyrimido[5,4-d]pyrimidin-2-yl)piperazin-1-yl)prop-2-en-1-one], the GI50 is no more than 50 nM.

Regarding `CC#CC(=O)Nc1cc2c(Nc3cc(C)c(Oc4ccn5ncnc5c4)cc3OC)ncnc2cc1OC` [Example 28, N-(4-((4-([1,2,4]triazolo[1,5-a]pyridin-7-yloxy)-2-methoxy-5-methylphenyl)amino)-7-methoxyquinazolin-6-yl)but-2-ynamide], the GI50 is no more than 50 nM.

Take `COc1cc2ncnc(Nc3cc(C)c(Oc4ccn5ncnc5c4)cc3OC)c2cc1NC(=O)/C=C/CNC1CCS(=O)(=O)CC1` [Example 38, (E)-N-(4-((4-([1,2,4]triazolo[1,5-a]pyridin-7-yloxy)-2-methoxy-5-methylphenyl)amino)-7-methoxyquinazolin-6-yl)-4-((1,1-dioxidotetrahydro-2H-thiopyran-4-yl)amino)but-2-enamide]: the GI50 was no more than 50 nM.

Regarding `COc1cc2ncnc(Nc3cc(C)c(Oc4ccn5ncnc5c4)cc3OC)c2cc1NC(=O)/C=C/CN1CC2(COC2)C1` [Example 40, (E)-N-(4-((4-([1,2,4]triazolo[1,5-a]pyridin-7-yloxy)-2-methoxy-5-methylphenyl)amino)-7-methoxyquinazolin-6-yl)-4-(2-oxa-6-azaspiro[3.3]heptan-6-yl)but-2-enamide], the GI50 was no more than 50 nM.

As to `COc1cc2ncnc(Nc3cc(C)c(Oc4ccn5ncnc5c4)cc3OC)c2cc1NC(=O)/C(F)=C/C1CCCN1C` (stereo not drawn) [Example 43, (Z)—N-(4-((4-([1,2,4]triazolo[1,5-a]pyridin-7-yloxy)-2-methoxy-5-methylphenyl)amino)-7-methoxyquinazolin-6-yl)-2-fluoro-3-(1-methylpyrrolidin-2-yl)acrylamide], the GI50 was no more than 50 nM.

Turning to `COc1cc2ncnc(Nc3cc(C)c(Oc4ccn5ncnc5c4)cc3OC)c2cc1NC(=O)/C(F)=C\[C@@H]1CCCN1C` [Example 44, (S,E)-N-(4-((4-([1,2,4]triazolo[1,5-a]pyridin-7-yloxy)-2-methoxy-5-methylphenyl)amino)-7-methoxyquinazolin-6-yl)-2-fluoro-3-(1-methylpyrrolidin-2-yl)acrylamide], the GI50 was no more than 50 nM.

Consider `COc1cc2ncnc(Nc3cc(C)c(Oc4cc5ncnn5cn4)cc3OC)c2cc1NC(=O)/C(F)=C\[C@H]1CCCN1C` [Example 47, (R,E)-N-(4-((4-([1,2,4]triazolo[1,5-c]pyrimidin-7-yloxy)-2-methoxy-5-methylphenyl)amino)-7-methoxyquinazolin-6-yl)-2-fluoro-3-(1-methylpyrrolidin-2-yl)acrylamide], for which the 50% growth inhibitory concentration (GI50) is no more than 50 nM.

In the case of `COc1cc2ncnc(Nc3cc(C)c(Oc4cc5ncnn5cn4)cc3OC)c2cc1NC(=O)/C(F)=C/[C@H]1CCCN1C` [Example 48, (R,Z)—N-(4-((4-([1,2,4]triazolo[1,5-c]pyrimidin-7-yloxy)-2-methoxy-5-methylphenyl)amino)-7-methoxyquinazolin-6-yl)-2-fluoro-3-(1-methylpyrrolidin-2-yl)acrylamide], the GI50 is no more than 50 nM.

Turning to `COc1cc2ncnc(Nc3cc(F)c(Oc4ccn5ncnc5c4)cc3OC)c2cc1NC(=O)/C(F)=C\[C@H]1CCCN1C` [Example 49, (R,E)-N-(4-((4-([1,2,4]triazolo[1,5-a]pyridin-7-yloxy)-5-fluoro-2-methoxyphenyl)amino)-7-methoxyquinazolin-6-yl)-2-fluoro-3-(1-methylpyrrolidin-2-yl)acrylamide], the 50% growth inhibitory concentration (GI50) was no more than 50 nM.

Take `COc1cc2ncnc(Nc3cc(C)c(Oc4ccc5c(c4)ncn5C)cc3OC)c2cc1NC(=O)/C(F)=C/[C@H]1CCCN1C` [Example 56, (R,Z)-2-fluoro-N-(7-methoxy-4-((2-methoxy-5-methyl-4-((1-methyl-1H-benzo[d]imidazol-5-yl)oxy)phenyl)amino)quinazolin-6-yl)-3-(1-methylpyrrolidin-2-yl)acrylamide]: the GI50 was no more than 50 nM.

Regarding `COc1cc2ncnc(Nc3cc(C)c(Oc4ccc5c(c4)ncn5C)cc3OC)c2cc1NC(=O)/C(F)=C\[C@H]1CCCN1C` [Example 57, (R,E)-2-fluoro-N-(7-methoxy-4-((2-methoxy-5-methyl-4-((1-methyl-1H-benzo[d]imidazol-5-yl)oxy)phenyl)amino)quinazolin-6-yl)-3-(1-methylpyrrolidin-2-yl)acrylamide], the GI50 was no more than 50 nM.

On to `COc1cc2ncnc(Nc3cc(Cl)c(Oc4ccc5c(c4)ncn5C)cc3OC)c2cc1NC(=O)/C(F)=C/[C@H]1CCCN1C` [Example 58, (R,Z)—N-(4-((5-chloro-2-methoxy-4-((1-methyl-1H-benzo[d]imidazol-5-yl)oxy)phenyl)amino)-7-methoxyquinazolin-6-yl)-2-fluoro-3-(1-methylpyrrolidin-2-yl)acrylamide], for which the GI50 was no more than 50 nM.

On to `COc1cc2ncnc(Nc3cc(Cl)c(Oc4ccc5c(c4)ncn5C)cc3OC)c2cc1NC(=O)/C(F)=C\[C@H]1CCCN1C` [Example 59, (R,E)-N-(4-((5-chloro-2-methoxy-4-((1-methyl-1H-benzo[d]imidazol-5-yl)oxy)phenyl)amino)-7-methoxyquinazolin-6-yl)-2-fluoro-3-(1-methylpyrrolidin-2-yl)acrylamide], for which the GI50 is no more than 50 nM.

In the case of `COc1cc2ncnc(Nc3cc(F)c(Oc4ccc5c(c4)ncn5C)cc3OC)c2cc1NC(=O)/C(F)=C\[C@H]1CCCN1C` [Example 60, (R,E)-2-fluoro-N-(4-((5-fluoro-2-methoxy-4-((1-methyl-1H-benzo[d]imidazol-5-yl)oxy)phenyl)amino)-7-methoxyquinazolin-6-yl)-3-(1-methylpyrrolidin-2-yl)acrylamide], the GI50 was no more than 50 nM.
